Measured values: patent US4450269A, “Mono-5-substituted-3-chloro-4H-1,2,6-thiadiazin-4-one antifungal agents” (FMC Corporation, priority 1980, dated 1984)
Like-named read-outs stand apart in the source and are kept apart here.

How the values were obtained:
Pyricularia oryzae = format: cell-based; conditions: PO, 48 hours
Pythium ultimum = assay: Mycelial growth test; format: cell-based; conditions: Globisporangium ultimum, 72 h, PU, read-out: Percent Fungus Growth Inhibition

Compound	Spore Germination Rating (Pyricularia oryzae; 1.0 ppm)	Spore Germination Rating (Pyricularia oryzae; 2.5 ppm)	Spore Germination Rating (Pyricularia oryzae; 10 ppm)	Spore Germination Rating (Pyricularia oryzae; 40 ppm)	inhibition at 5 ppm (Pythium ultimum)	inhibition at 10 ppm (Pythium ultimum)	inhibition at 20 ppm (Pythium ultimum)	inhibition at 40 ppm (Pythium ultimum)
O=c1c(Cl)nsnc1Oc1ccc(F)cc1 [Compound 11, 3-chloro-5-(4-fluorophenoxy)-4H--1,2,6-thiadiazin-4-one]	3 (60-80)	0 (0-10)	0 (0-10)	0 (0-10)	0%	18%	82%	100%
CC(=O)c1cccc(Oc2nsnc(Cl)c2=O)c1 [Compound 48, 3-(3-acetylphenoxy)-5-chloro-4H--1,2,6-thiadiazin-4-one]	3 (60-80)	1 (10-40)	0 (0-10)	0 (0-10)	78%	42%	100%	100%
Cc1cc(Cl)ccc1Oc1nsnc(Cl)c1=O [Compound 55, 3-chloro-5-(4-chloro-2-methylphenoxy)-4H--1,2,6-thiadiazin-4-one]	1 (10-40)	0 (0-10)	0 (0-10)	0 (0-10)	42%	64%	33%	47%
Cc1cc(Oc2nsnc(Cl)c2=O)cc(C)c1Cl [Compound 59, 3-chloro-5-[(4-chloro-3,5-dimethyl)phenoxy]-4H--1,2,6-thiadiazin-4-one]	0 (0-10)	0 (0-10)	0 (0-10)	0 (0-10)	0%	0%	0%	29%
CC(=O)c1ccc(Oc2nsnc(Cl)c2=O)cc1 [Compound 47, 3-(4-acetylphenoxy)-5-chloro-4H--1,2,6-thiadiazin-4-one]	1 (10-40)	0 (0-10)	0 (0-10)	0 (0-10)	71%	100%	100%	100%
Cc1ccc(Oc2nsnc(Cl)c2=O)cc1 [Compound 3, 3-chloro-5-(4-methylphenoxy)-4H--1,2,6-thiadiazin-4-one]	0 (0-10)	4 (80-100)	0 (0-10)	0 (0-10)	20%	100%	100%	100%
O=c1c(Cl)nsnc1Oc1c(Cl)cc(Cl)cc1Cl [Compound 30, 3-chloro-5-(2,4,6-trichlorophenoxy)-4H--1,2,6-thiadiazin-4-one]	3 (60-80)	0 (0-10)	0 (0-10)	0 (0-10)	20%	71%	96%	100%
CC(=O)c1ccccc1Oc1nsnc(Cl)c1=O [Compound 49, 3-(2-acetylphenoxy)-5-chloro-4H--1,2,6-thiadiazin-4-one]	2 (40-60)	1 (10-40)	0 (0-10)	0 (0-10)	47%	87%	96%	100%
O=c1c(Cl)nsnc1Oc1ccc(Cl)c(Cl)c1 [Compound 16, 3-chloro-5-(3,4-dichlorophenoxy)-4H--1,2,6-thiadiazin-4-one]	0 (0-10)	0 (0-10)	0 (0-10)	0 (0-10)	7%	11%	47%	56%
COc1ccc(Cl)c(Oc2nsnc(Cl)c2=O)c1 [Compound 51, 3-chloro-5-[(2-chloro-5-methoxy)phenoxy]-4H--1,2,6-thiadiazin-4-one]	3 (60-80)	0 (0-10)	0 (0-10)	0 (0-10)	0%	31%	91%	100%
CC(C)(C)c1ccc(Oc2nsnc(Cl)c2=O)cc1 [Compound 4, 3-chloro-5-(4-tert-butylphnoxy)-4H--1,2,6-thiadiazin-4-one]	4 (80-100)	4 (80-100)	0 (0-10)	0 (0-10)	0%	20%	0%	0%
CCOC(=O)c1ccc(Oc2nsnc(Cl)c2=O)cc1 [Compound 7, 3-chloro-5-(4-ethoxycarbonylphenoxy)-4H--1,2,6-thiadiazin-4-one]	1 (10-40)	1 (10-40)	1 (10-40)	1 (10-40)	11%	29%	80%	100%
Cc1ccccc1Oc1nsnc(Cl)c1=O [Compound 22, 3-chloro-5-(2-methylphenoxy)-4H--1,2,6-thiadiazin-4-one]	2 (40-60)	0 (0-10)	0 (0-10)	0 (0-10)	20%	64%	96%	100%
